Here are results for one compound from patent US20110178118A1, “PALONOSETRON FOR THE TREATMENT OF CHEMOTHERAPY INDUCED EMESES” (priority 2002, published 2011).

Marks after values point to notes of the source that are not given here.

The test system of data set [1] is Highly Emetogenic Chemotherapy-Induced Nausea and Vomiting. The data set is described as follows: Phase II dose-ranging trial, single I.V. palonosetron, efficacy. Particulars: for % CR(Day 5): 5-day complete response; for % CR(24 hr): complete response (no emesis, no rescue).
Protocol: A randomized, double-blind, multicenter, dose-ranging Phase II trial was performed to identify the dose response relationship among single I.V. doses of palonosetron. Patients receiving highly emetogenic chemotherapy including cyclophosphamide (>1100 mg/m2) and cisplatin (>70 mg/m2), commonly associated with delayed emesis, were assigned to one of five dose groups of a single I.V. administration of palonosetron. Palonosetron was administered alone (without dexamethasone) as a 30 second intravenous injection, 30 minutes prior to chemotherapy administration. The primary endpoint was 24-hour complete responses (no emesis, no rescue) (CR). Secondary endpoints included complete control (no emesis, no rescue, mild nausea) (CC) and 5-day CR.
161 patients (32 women, 129 men) participated.
Data set [2] can be described thus: Plasma half-life of palonosetron. The data set is classed as in vivo. Particulars: human.
[3] abbreviates: palonosetron 0.3-1 mcg/kg single I.V.
The mark [4] stands for this setting: palonosetron 3 mcg/kg single I.V.
Setting [5] is: palonosetron 10 mcg/kg single I.V.
Where [6] appears, read: palonosetron 30 mcg/kg single I.V.
The mark [7] stands for this setting: palonosetron 90 mcg/kg single I.V.

As to `Cl.O=C1c2cccc3c2[C@H](CCC3)CN1[C@@H]1CN2CCC1CC2` [Palonosetron, (3aS)-2,3,3a,4,5,6-Hexahydro-2-[(S)-1-Azabicyclo[2.2.2]oct-3-yl]2,3,3a,4,5,6-hexahydro-1-oxo-1Hbenz[de]isoquinoline hydrochloride], the “% CR(Day 5)” value in data set [1] (setting [3]) was 17%; in data set [1] (setting [4]) it was 17%; in data set [1] (setting [5]) it was 32%; in data set [1] (setting [6]), 33%; in data set [1] (setting [7]) it was 20%. The “% CR(24 hr)” value in data set [1] (setting [3]) is 24%; in data set [1] (setting [4]), 46%; in data set [1] (setting [5]), 40%; in data set [1] (setting [6]), 50* %; in data set [1] (setting [7]), 46%. In data set [2], the half-life (in general, the time in which the quantity being followed falls by half) is ~40 h.
